US20230295201A1 (Gilead Sciences, Inc., priority 2020, published 2023)
Read-outs that look alike come from different tables or passages of the source.

How the values were obtained:
Type in all cases: cell-based
HRV14 = HRV14 HELA EC50 (cytopathic effect in H1-HeLa cells); conditions: 96 h, read-out: HRV14 HELA EC50
Description: H1-HeLa cells, cultured in complete RPMI 1640 medium containing 10% heat-inactivated FBS and 1% Penicillin/Streptomycin, were seeded in 96 well plates at 5000 cells/well one day prior to compound dosing and infection. The antiviral activity of each compound was measured in triplicate. Compounds were added directly to the cell cultures in serial 3-fold dilutions using the HP300 digital dispenser (Hewlett Packard, Palo Alto, CA) immediately prior to infection. The plates were transferred to BSL-2 containment and 100 μL of 1/4000 dilution of HRV14 virus stock was added to each well containing cells and serially diluted compounds. Each plate included 6 wells of infected untreated cells and 6 wells of cells containing 5 μM Rupintrivir that served as 0% and 100% virus inhibition control, respectively. Following the infection, test plates were incubated for 96 h in a tissue culture incubator set to 37° C./5% CO2. Following incubation, the H1-HeLa cells were removed from incubation and allowed to equilibrate to 25° C. Cell viability was determined by removing 100 μL of culture medium and adding 100 μL of Cell-Titer Glo viability reagent. The mixtures were incubated on a shaker for 10 minutes at 25° C., and the luminescence signal was quantified on an Envision luminescence plate reader.

[1] = system: Dengue serotype 2 New Guinea C (NGC) strain; assay: DENV-2 Huh-7 EC50 (qPCR in Huh7 cells); conditions: Dengue virus, DENV2, Huh-7, 48 h
In short: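 Huh7 cells infected 2 h at 37 °C with DENV-2 NGC at MOI 0.1, then plated with graded compound doses (0.25% DMSO) in triplicate. After 48 h, viral RNA quantified by duplex TaqMan RT-qPCR against GAPDH; EC50 normalized to positive control and no-compound wells.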

HCV replicon 2A = assay: HCV Rep 2A EC50 (replicon luciferase); conditions: Hepatitis C virus, 72 h
Description: (§1) Compounds were serially diluted in ten steps of 1:3 dilutions in 384-well plates. All serial dilutions were performed in four replicates per compound within the same 384-well plate. […] To each well of a black polystyrene 384-well plate (Greiner Bio-one, Monroe, NC), 90 μL of cell culture medium (without Geneticin) containing 2000 suspended HCV replicon cells was added with a Biotek μFlow workstation. For compound transfer into cell culture plates, 0.4 μL of compound solution from the compound serial dilution plate was transferred to the cell culture plate on a Biomek FX workstation. The DMSO concentration in the final assay wells was 0.44%. The plates were incubated for 3 days at 37° C. with 5% CO2 and 85% humidity. The HCV replicon assay was a multiplex assay, able to assess both cytotoxicity and antireplicon activity from the same well. The CC50 assay was performed first. The media in the 384-well cell culture plate was aspirated, and the wells were washed four times with 100 μL of PBS each, using a Biotek ELX405 plate washer. A volume of 50 μL of a solution containing 400 nM calcein AM (Anaspec, Fremont, CA) in 1×PBS was added to each well of the plate with a Biotek μFlow workstation. The plate was incubated for 30 min at room temperature before the fluorescence signal (excitation 490 nm, emission 520 nm) was measured with a Perkin-Elmer Envision plate reader. The EC50 assay was performed in the same wells as the CC50 assay. The calcein-PBS solution in the 384-well cell culture plate was aspirated with a Biotek ELX405 plate washer. A volume of 20 μL of Dual-Glo luciferase buffer (Promega, Madison, WI) was added to each well of the plate with a Biotek μFlow Workstation. The plate was incubated for 10 min at room temperature. A volume of 20 μL of a solution containing a 1:100 mixture of Dual-Glo Stop & Glo substrate (Promega, Madison, WI) and Dual-Glo Stop & Glo buffer (Promega, Madison, WI) was added to each well of the plate with a Biotek μFlow Workstation. The plate was then incubated at room temperature for 10 min before the luminescence signal was measured with a Perkin-Elmer Envision Plate Reader.

HCV replicon 1B = assay: HCV Rep 1B EC50 (replicon luciferase); conditions: Hepatitis C virus, 72 h
Description: as §1

[2] = system: Dengue 2, New Guinea strain (NGC); assay: DENV-2 moDC EC50 (qPCR in human monocyte-derived dendritic cells); conditions: Dengue virus, DENV2, Dendritic cell; moDCs, 48 hours
Description: Human monocyte-derived dendritic cells (moDCs) were derived from CD14+ monocytes (AllCells) cultured in Human Mo-DC Differentiation medium containing GM-CSF and IL-4 (Miltenyi Biotec). On day 7, moDCs were harvested by mechanical disruption, washed and suspended in serum-free RPMI. moDCs were infected with Vero-derived Dengue 2, New Guinea strain (NGC) at a MOI=0.1 for two hours in serum-free RPMI with gentle agitation at 37° C. Cells were washed and resuspended in 10% serum-containing RPMI (Gibco, supplemented with sodium pyruvate, NEAA, Penicillin-Streptomycin). 10^5 cells were plated in triplicate in 96-well plates with compounds dispensed at graded doses (Hewlett-Packard D300 Digital Dispenser). All wells were normalized to 0.25% DMSO. At 48 hours, cells were washed with 1×PBS and all supernatants removed. Total RNA was extracted using RNEasy 96 plates (Qiagen) and used to generate first-strand cDNA using XLT cDNA 5× Supermix (QuantaBio). cDNA was used as a template in a Taqman qPCR duplex reaction specific to DENV2 viral and GAPDH gene expression. EC50 values were determined using Prism Graphpad software, with normalization to a positive control and no compound negative control wells.

[3] = read-out: HCV Rep 2A EC50, replicon cells, 3 days
[4] = read-out: HCV Rep 1B EC50, replicon cells, 3 days

## C[C@H](NP(=O)(OC[C@@]1(C#N)O[C@@H](c2ccc3c(N)ncnn23)[C@H](O)[C@@H]1O)Oc1ccccc1)C(=O)OCC1CC1 (mixture of isomers) [Example 8, (2S)-cyclopropylmethyl 2-(((((2R,3S,4R,5S)-5-(4-aminopyrrolo[2,1-f][1,2,4]triazin-7-yl)-2-cyano-3,4-dihydroxytetrahydrofuran-2-yl)methoxy)(phenoxy)phosphoryl)amino)propanoate]
HRV14
  EC50: 0.615 µM

## CC(C)OC(=O)[C@H](C)NP(=O)(OC[C@@]1(C#N)O[C@@H](c2ccc3c(N)ncnn23)[C@H](O)[C@@H]1O)Oc1ccccc1 (mixture of isomers) [Example 77, Isopropyl ((((2R,3S,4R,5S)-5-(4-aminopyrrolo[2,1-f][1,2,4]triazin-7-yl)-2-cyano-3,4-dihydroxytetrahydrofuran-2-yl)methoxy)(phenoxy)phosphoryl)-L-alaninate]
HRV14
  EC50: 1.81 µM

## CCC(CC)COC(=O)[C@H](CC)NP(=O)(OC[C@@]1(C#N)O[C@@H](c2ccc3c(N)ncnn23)[C@H](O)[C@@H]1O)Oc1ccccc1 (mixture of isomers) [Example 88, (2S)-2-ethylbutyl 2-(((((2R,3S,4R,5S)-5-(4-aminopyrrolo[2,1-f][1,2,4]triazin-7-yl)-2-cyano-3,4-dihydroxytetrahydrofuran-2-yl)methoxy)(phenoxy)phosphoryl)amino)butanoate]
HRV14
  EC50: 1.69 µM
[1]
  EC50: > 25 µM
HCV replicon 2A; [3]
  EC50: 27.7 µM
HCV replicon 1B; [4]
  EC50: 23.7 µM

## CC[C@H](NP(=O)(OC[C@@]1(C#N)O[C@@H](c2ccc3c(N)ncnn23)[C@H](O)[C@@H]1O)Oc1ccccc1)C(=O)OC1CCCCC1 (mixture of isomers) [Example 103, (2S)-cyclohexyl 2-(((((2R,3S,4R,5S)-5-(4-aminopyrrolo[2,1-f][1,2,4]triazin-7-yl)-2-cyano-3,4-dihydroxytetrahydrofuran-2-yl)methoxy)(phenoxy)phosphoryl)amino)butanoate]
HRV14
  EC50: 2.55 µM

## C[C@H](NP(=O)(OC[C@@]1(C#N)O[C@@H](c2ccc3c(N)ncnn23)[C@H](O)[C@@H]1O)Oc1ccccc1)C(=O)OC1CCCCC1 (stereo partly drawn) [Example 4, (2S)-cyclohexyl 2-(((((2R,3S,4R,5S)-5-(4-aminopyrrolo[2,1-f][1,2,4]triazin-7-yl)-2-cyano-3,4-dihydroxytetrahydrofuran-2-yl)methoxy)(phenoxy)phosphoryl)amino)propanoate]
HRV14
  EC50: 0.445 µM
HCV replicon 2A; [3]
  EC50: 9.2 µM
HCV replicon 1B; [4]
  EC50: 52.7 µM

## CCC(CC)COC(=O)[C@@H](C)NP(=O)(OC[C@@]1(C#N)O[C@@H](c2ccc3c(N)ncnn23)[C@H](O)[C@@H]1O)Oc1ccccc1 (stereo partly drawn) [Example 82, (2R)-2-ethylbutyl 2-(((((2R,3S,4R,5S)-5-(4-aminopyrrolo[2,1-f][1,2,4]triazin-7-yl)-2-cyano-3,4-dihydroxytetrahydrofuran-2-yl)methoxy)(phenoxy)phosphoryl)amino)propanoate]
HRV14
  EC50: 9.19 µM

## C[C@H](NP(=O)(OC[C@@]1(C#N)O[C@@H](c2ccc3c(N)ncnn23)[C@H](O)[C@@H]1O)Oc1ccccc1)C(=O)OCC(C)(C)C (stereo partly drawn) [Example 92, (2S)-neopentyl 2-(((((2R,3S,4R,5S)-5-(4-aminopyrrolo[2,1-f][1,2,4]triazin-7-yl)-2-cyano-3,4-dihydroxytetrahydrofuran-2-yl)methoxy)(phenoxy)phosphoryl)amino)propanoate]
HRV14
  EC50: 0.242 µM
HCV replicon 2A; [3]
  EC50: 2.91 µM
HCV replicon 1B; [4]
  EC50: 16.5 µM

## CCCCCCCCCCCCCCCCCCOC[C@H](COP(=O)(O)OC[C@@]1(C#N)O[C@@H](c2ccc3c(N)ncnn23)[C@H](O)[C@@H]1O)OCc1ccccc1 [Example 96, ((2R,3S,4R,5S)-5-(4-aminopyrrolo[2,1-f][1,2,4]triazin-7-yl)-2-cyano-3,4-dihydroxytetrahydrofuran-2-yl)methyl ((R)-2-(benzyloxy)-3-(octadecyloxy)propyl) hydrogen phosphate]
[2]
  EC50: > 25 µM
HRV14; H1-HeLa cells
  EC50: 12 µM
HCV replicon 2A; replicon cells, 3 days, read-out: HCV Rep 2A EC50
  EC50: 47.3 µM
HCV replicon 1B; replicon cells, 3 days, read-out: HCV Rep 1B EC50
  EC50: 30.7 µM

## CCC(CC)OC(=O)[C@H](C)NP(=O)(OC[C@@]1(C#N)O[C@@H](c2ccc3c(N)ncnn23)[C@H](O)[C@@H]1O)Oc1ccccc1 (stereo partly drawn) [Example 101, (2S)-pentan-3-yl 2-(((((2R,3S,4R,5S)-5-(4-aminopyrrolo[2,1-f][1,2,4]triazin-7-yl)-2-cyano-3,4-dihydroxytetrahydrofuran-2-yl)methoxy)(phenoxy)phosphoryl)amino)propanoate]
HRV14
  EC50: 3.43 µM
